From patent US20160331783A1, “BISAMIDE COMPOUNDS AS ALLOSTERIC EFFECTORS FOR REDUCING THE OXYGEN-BINDING AFFINITY OF HEMOGLOBIN” (THE GENERAL HOSPITAL CORPORATION, priority 2014, published 2016)
Values belong to the compound of their own block, whether it stands above or below them. Non-standard residues stand in square brackets, D forms with d. Residues, ends and D or L forms follow the SMILES beside them. dNMeBip = CN[C@H](Cc1ccc(-c2ccccc2)cc1)C(=O)O

Key:
[1] = system: human red blood cells (RBCs) / whole blood; assay: Oxygen dissociation curve (ODC) of RBCs / whole blood, Hemox analyzer, P50; format: cell-based; details: for P50 of RBCs: RBCs 20 μM as hemoglobin tetramer, 1 h at 37° C.; for P50 of whole blood: hemoglobin 20 μM, tested compound 120 μM, whole blood alone 26 Torr
Description: (§1) The ODC of hemoglobin was measured with a Hemox analyzer (TCS Scientific Corporation) at 37° C. For experiments with purified hemoglobin, hemoglobin (20 μM as tetramer) was dissolved in DPBS and antifoam (0.2 vol %, Catalog No. AFA-25, TCS Scientific Corporation) was added to prevent foaming of the sample. Compounds were prepared in DMSO stock solutions then added to hemoglobin. The final concentration of DMSO was adjusted to 5 vol %. For experiments with RBCs, blood was drawn from volunteers into EDTA tubes. The blood was centrifuged for 15 min at 3,000 rpm at 4° C. The supernatant was discarded, and RBCs were washed three times with DPBS, pH 7.4 by dilution to 50% hematocrit. The washed RBCs were then diluted with Hemox solution (mixture of N-[Tris(hydroxymethyl)methyl]-2-aminoethanesulfonic acid (TES, 30 mM), sodium chloride (135 mM), and potassium chloride (5 mM) in water (pH 7.4), TCS Scientific Corporation), and mixed with the test compound stock solutions. When known allosteric effectors NEM (400 μM), 5HMF (2 mM) or formamidine disulfide (400 μM) were mixed with RBCs (20 μM as hemoglobin tetramer) for 1 h at 37° C., P50 was reduced to 8 Torr, 9 Torr, and 9 Torr respectively, which correlated with previous reports (see Garel et al., European Journal of Biochemistry, 1982, 123, 513-519). Data was analyzed by two-tailed, unpaired Student's t test using Microsoft Excel 2007.

[2] = molecular target: T1, purified human hemoglobin (Homo sapiens, UniProt P68871); assay: Oxygen dissociation curve (ODC) of purified hemoglobin, Hemox analyzer, P50; format: biochemical; details: for P50 with purified hemoglobin: hemoglobin 20 μM, tested compound 120 μM, purified hemoglobin alone 17 Torr
T1 construct: For experiments with purified hemoglobin, hemoglobin (20 μM as tetramer) was dissolved in DPBS
Description: as §1
A saturating effect on P50 was first determined by adding an increasing concentration of 2,3-DPG and IHP. No increase of P50 of hemoglobin was observed after an addition of a 30-fold molar excess of 2,3-DPG or IHP to hemoglobin. Hemoglobin (20 μM as tetramer) was pre-incubated with either 2,3-DPG (600 μM) or IHP (600 μM) followed by addition of Compound 1 (0, 50, 100, 150 and 200 μM) to the hemoglobin.

RBCs = assay: Hemolysis of RBCs / blood on incubation with compound; format: cell-based, human; parameters: key to Hemolysis of whole blood (P50 of whole blood column): c: does not hemolyze; details: for Hemolysis of diluted human blood: diluted human blood 50 μM, compound/Hb tetramer 30/1 mol/mol (1.5 mM), FIG. 9; for Hemolysis of whole blood (P50 of whole blood column): hemoglobin 20 μM, tested compound 120 μM
hemoglobin [3] = molecular target: T2, hemoglobin (Homo sapiens, UniProt P68871); assay: Small molecule microarray (SMM) binding to hemoglobin; details: hemoglobin 1 μg/mL, antibody detection
T2 construct: incubated in a TBS-T solution containing purified hemoglobin (1 μg/mL)
Description: Test compounds were affixed to SMM slides with isocyanate-functionalized surfaces as described in Casalena et al., Methods in molecular biology, 2012, 803, 249-263. Pre-incubating the SMMs with albumin blocked non-specific binding of the compounds to SMMs. Compounds binding to hemoglobin were detected on the SMMs using a fluorescent dye-conjugated antibodies specific for hemoglobin. The assay was validated by confirming the binding of hemoglobin to 2,3-DPG affixed on SMMs.
Each slide contained 48 “blocks”, and each block contained approximately 100 unique surface-immobilized small molecules. Compounds were printed in duplicate, and each slide was screened in duplicate, resulting in four replicates for every test compound. SMM slides were blocked by incubating them in a TBS-T solution (Tween 20, 0.01 vol %) containing bovine serum albumin (BSA, 0.1 wt %) for 30 min. […]
Using SMM Hits-Analyzer software (Broad Institute), the measured fluorescent signal of the foreground of a given spot (F) was divided by its local background (B) resulting in a calculated F/B ratio for each spot on which the test compounds were affixed. The F/B ratios were fitted to a Cauchy distribution plot for every block on the slide, and “positive” hits were determined using a p-value threshold of 7%. […]

hemoglobin [4] = molecular target: T2, hemoglobin; assay: Hemoglobin oxygen-binding assay (oxyHb % by spectrophotometry at controlled FO2); format: biochemical; details: allosteric effector to hemoglobin tetramer 6 to 1 (mol/mol)
Description: Test compounds (0.75 μL, 10 mM in DMSO) were added to the central area of two 384 deep well plates forming compound plates. DPBS was used as the solvent for myo-inositol hexaphosphate (IHP) and N-ethylmaleimide (NEM) (10 mM). To prevent oxidation of hemoglobin during the experiment, glucose-6-phosphate (0.4 mg/mL), glucose-6-phosphate dehydrogenase (1.0 U/mL), nicotinamide adenine dinucleotide phosphate (NADP, 0.05 mg/mL), ferredoxin (0.01 mg/mL), ferredoxin-NADP reductase (0.01 U/mL) and catalase (2×10^3 U/mL) were added to hemoglobin to produce the Hayashi reducing system, which is described in detail in Hayashi et al., Biochemica et Biophysica Acta, 1973, 310, 309-316. […]
The alteration of hemoglobin's oxygen-binding affinity by the test compounds binding to hemoglobin was evaluated in an environment where the fractional oxygen pressure (FO2) could be precisely measured and controlled. […] To confirm the allosteric effect of the test compounds, ODC of hemoglobin was measured in the presence and absence of each compound. […]
The ability of small molecules to alter the oxygen affinity of hemoglobin was determined by measuring the fraction of oxygenated hemoglobin (oxyHb %) and oxidized hemoglobin (metHb %) using spectrophotometry under three (high, medium, and low oxyHb saturation) conditions. […]

T1 sequence (P68871 2-147 limits assumed): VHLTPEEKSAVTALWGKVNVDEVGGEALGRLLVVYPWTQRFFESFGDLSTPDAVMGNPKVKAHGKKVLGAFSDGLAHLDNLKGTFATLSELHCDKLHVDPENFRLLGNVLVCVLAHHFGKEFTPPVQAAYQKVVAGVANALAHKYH
T1 sequence (P69905 2-142 partner limits assumed): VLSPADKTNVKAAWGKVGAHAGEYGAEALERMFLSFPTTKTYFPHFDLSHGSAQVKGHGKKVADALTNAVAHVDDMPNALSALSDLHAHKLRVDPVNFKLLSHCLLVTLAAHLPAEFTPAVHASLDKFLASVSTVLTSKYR
T2 sequence (P68871 2-147 limits assumed): as the sequence (P68871 2-147 limits assumed) above
T2 sequence (P69905 2-142 partner limits assumed): as the sequence (P69905 2-142 partner limits assumed) above

Structure (SMILES): O=Cc1ccc(CO)o1 [Compound 5HMF, reference compound]
P50 of RBCs ([1]; allosteric effector 2 mM): 9 Torr

Structure (SMILES): Cc1cc(C)cc(C(=O)N(C)[C@H](Cc2ccccc2)C(=O)N[C@@H](Cc2c[nH]c3ccccc23)C(=O)O)c1 [Compound 2, (S)-3-(1H-indol-3-yl)-2-((R)-3-phenyl-2-(N,3,5-trimethylbenzamido)propanamido)propanoic acid]
Oxygen affinity of red blood cells (RBCs) ([1]; human blood, FIG. 9): increased
Increase of P50 of hemoglobin, dose dependence ([2]; FIG. 3, FIG. 6-7): concentration-dependent
P50 with purified hemoglobin [2]: 20 Torr
Hemolysis of diluted human blood (RBCs): without hemolysis

Structure (SMILES): Cc1cc(C)cc(NC(=O)Cc2ccc(OC(C)(C)C(=O)O)cc2)c1 [RSR-13, reference compound]
Hemolysis of diluted human blood (RBCs): hemolysis

Structure (SMILES): O=C(O)C(COP(=O)(O)O)OP(=O)(O)O (stereo not drawn) [2,3-DPG, 2,3-diphosphoglycerate, reference compound]
Binding of hemoglobin to compound affixed on SMMs (hemoglobin [3]): binding
P50 of hemoglobin ([2]; hemoglobin 20 μM tetramer, compound 200 μM, DPBS pH 7.4, 5 vol % DMSO, 37° C., hemoglobin alone 17 Torr): 19±0.1 Torr
P50 of hemoglobin with 2,3-DPG ([2]; hemoglobin 20 μM, 2,3-DPG 600 μM (pre-saturated), no Compound 1): 23±0.7 Torr

Structure (SMILES): N=C(N)SSC(=N)N [formamidine disulfide, reference compound]
P50 of RBCs ([1]; allosteric effector 400 μM): 9 Torr

Structure (SMILES): CC(=O)N(C)[C@H](Cc1ccc(-c2ccccc2)cc1)C(=O)N[C@@H](Cc1c[nH]c2ccccc12)C(=O)O [Compound 4, (S)-2-((R)-3-([1,1′-biphenyl]-4-yl)-2-(N-methylacetamido)propanamido)-3-(1H-indol-3-yl)propanoic acid] (Ac-[dNMeBip]-Trp-OH)
P50 with purified hemoglobin [2]: 20 Torr

Structure (SMILES): CCN1C(=O)C=CC1=O [NEM, N-ethylmaleimide, reference compound]
P50 of RBCs ([1]; allosteric effector 400 μM): 8 Torr
Change of oxyHb % (hemoglobin [4]): increase

More lines, main results first:

P50 with purified hemoglobin [2]: 18 Torr
Structure (SMILES): CC(=O)N(C)[C@@H](Cc1ccccc1)C(=O)N[C@H](Cc1c[nH]c2ccccc12)C(=O)O (stereo in doubt) [Compound 5, (R)-3-(1H-indol-3-yl)-2-((S)-2-(N-methylacetamido)-3-phenylpropanamido)propanoic acid]

P50 with purified hemoglobin [2]: 23 Torr
Structure (SMILES): Cc1cc(C)cc(C(=O)N(C)C(Cc2ccc(-c3ccccc3)cc2)C(=O)NC(C)(C)C(=O)O)c1 (stereo not drawn) [Compound 10, 2-(3-([1,1′-biphenyl]-4-yl)-2-(N,3,5-trimethylbenzamido)propanamido)-2-methylpropanoic acid]
P50 of whole blood [1]: 31 Torr
Hemolysis of whole blood (P50 of whole blood column) (RBCs): c

P50 with purified hemoglobin [2]: 48 Torr
Structure (SMILES): Cc1cc(C)cc(C(=O)NC(Cc2ccc(-c3ccccc3)cc2)C(=O)NCC(=O)O)c1 (stereo not drawn) [Compound 8, 2-(3-([1,1′-biphenyl]-4-yl)-2-(3,5-dimethylbenzamido)propanamido)acetic acid]
P50 of whole blood [1]: 32 Torr
Hemolysis of whole blood (P50 of whole blood column) (RBCs): c

P50 with purified hemoglobin [2]: 28 Torr
Structure (SMILES): Cc1cc(C)cc(C(=O)N(C)C(Cc2ccc(-c3ccccc3)cc2)C(=O)NCC(=O)O)c1 (stereo not drawn) [Compound 9, 2-(3-([1,1′-biphenyl]-4-yl)-2-(N,3,5-trimethylbenzamido)propanamido)acetic acid]
P50 of whole blood [1]: 33 Torr
Hemolysis of whole blood (P50 of whole blood column) (RBCs): c

Change of oxyHb % (hemoglobin [4]): decrease
Structure (SMILES): O=P(O)(O)O[C@H]1[C@H](OP(=O)(O)O)[C@@H](OP(=O)(O)O)[C@H](OP(=O)(O)O)[C@@H](OP(=O)(O)O)[C@H]1OP(=O)(O)O [IHP, myo-inositol hexaphosphate]
